The text below walks through data of US8614327B2 (Vertex Pharmaceuticals Incorporated, priority 2004, dated 2013).

In this experiment the target is T1, ΔF508-CFTR (Homo sapiens, UniProt P13569, DEL508-508).
T1 construct: expressed in transfected cells
As to the kind of experiment: Membrane potential optical (FRET/VIPR) assay, identification of potentiator compounds. It is filed as cell-based. The following applies: Table 3, assay not given; for % Activity: relative efficacy. Summed up: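 NIH3T3 mouse fibroblasts stably expressing ΔF508-CFTR, temperature-corrected 24 h at 27° C., read on VIPR by FRET between CC2-DMPE and DiSBAC2(3). Potentiators identified in a double-addition format, first adding chloride-free (gluconate) medium with or without compound.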

T1 sequence (P13569 with tags, fused parts or gaps DEL508-508): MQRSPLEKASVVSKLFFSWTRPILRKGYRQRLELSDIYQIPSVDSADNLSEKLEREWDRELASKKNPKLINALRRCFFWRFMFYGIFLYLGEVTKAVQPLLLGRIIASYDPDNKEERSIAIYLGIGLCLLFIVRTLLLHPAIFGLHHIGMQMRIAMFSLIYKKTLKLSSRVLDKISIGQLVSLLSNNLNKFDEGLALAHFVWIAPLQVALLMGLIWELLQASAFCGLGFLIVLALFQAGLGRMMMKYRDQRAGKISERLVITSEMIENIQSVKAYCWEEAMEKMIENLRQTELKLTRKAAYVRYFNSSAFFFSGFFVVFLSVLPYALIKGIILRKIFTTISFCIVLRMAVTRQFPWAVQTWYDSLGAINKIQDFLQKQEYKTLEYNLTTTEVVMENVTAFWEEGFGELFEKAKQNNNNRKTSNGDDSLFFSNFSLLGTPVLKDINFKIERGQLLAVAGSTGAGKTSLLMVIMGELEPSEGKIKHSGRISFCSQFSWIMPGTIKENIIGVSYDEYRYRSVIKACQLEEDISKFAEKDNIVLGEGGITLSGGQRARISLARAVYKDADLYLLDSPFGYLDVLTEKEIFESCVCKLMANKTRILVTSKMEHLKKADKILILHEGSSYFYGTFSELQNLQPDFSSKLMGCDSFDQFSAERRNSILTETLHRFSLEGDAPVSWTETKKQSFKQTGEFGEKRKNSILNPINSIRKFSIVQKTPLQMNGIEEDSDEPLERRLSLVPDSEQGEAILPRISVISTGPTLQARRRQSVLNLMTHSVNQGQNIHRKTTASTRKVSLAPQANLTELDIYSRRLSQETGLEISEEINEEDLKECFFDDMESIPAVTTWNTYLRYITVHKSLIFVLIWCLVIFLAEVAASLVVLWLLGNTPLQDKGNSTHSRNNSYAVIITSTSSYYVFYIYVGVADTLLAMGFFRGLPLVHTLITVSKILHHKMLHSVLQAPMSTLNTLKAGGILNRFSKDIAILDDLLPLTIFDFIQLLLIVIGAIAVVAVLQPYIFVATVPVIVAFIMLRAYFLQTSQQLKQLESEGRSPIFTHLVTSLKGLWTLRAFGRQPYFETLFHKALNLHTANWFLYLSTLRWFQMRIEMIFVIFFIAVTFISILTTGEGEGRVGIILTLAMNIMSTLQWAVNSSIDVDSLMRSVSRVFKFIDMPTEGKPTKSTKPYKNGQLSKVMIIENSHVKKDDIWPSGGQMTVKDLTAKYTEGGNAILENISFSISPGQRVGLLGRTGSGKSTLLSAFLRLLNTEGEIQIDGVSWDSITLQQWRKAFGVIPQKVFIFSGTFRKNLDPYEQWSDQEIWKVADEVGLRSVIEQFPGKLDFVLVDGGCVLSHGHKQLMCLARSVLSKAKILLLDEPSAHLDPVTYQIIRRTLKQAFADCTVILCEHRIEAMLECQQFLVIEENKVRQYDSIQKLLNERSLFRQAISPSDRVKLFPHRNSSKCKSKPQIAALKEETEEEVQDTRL

The term EC50 denotes the concentration needed to bring the measured effect to its halfway point. For `C[C@H]1CCCN1c1ccc(NC(=O)c2c[nH]c3ccc(F)cc3c2=O)c(C(F)(F)F)c1` [Compound 714, (S)-6-fluoro-N-(4-(2-methylpyrrolidin-1-yl)-2-(trifluoromethyl)phenyl)-4-oxo-1,4-dihydroquinoline-3-carboxamide], the concentration for a half-maximal effect (EC50) is less than 10 µM and the “% Activity” value is “++ (between 25% to 100%)”.

Consider `COC(=O)[C@@H]1CCCCN1c1ccc(NC(=O)c2c[nH]c3ccccc3c2=O)c(C(F)(F)F)c1` [Compound 715, (S)-methyl 1-(4-(4-oxo-1,4-dihydroquinoline-3-carboxamido)-3-(trifluoromethyl)phenyl)piperidine-2-carboxylate], for which the half-maximal effective concentration (EC50) is less than 10 µM and the “% Activity” value is reported as “++ (between 25% to 100%)”.

With `O=C(Nc1ccc(C(F)(F)F)c(O)c1)c1c[nH]c2c(Cl)cccc2c1=O` [Compound 716, 8-chloro-N-[3-hydroxy-4-(trifluoromethyl)phenyl]-4-oxo-1H-quinoline-3-carboxamide], the EC50 is less than 10 µM and the “% Activity” value is recorded as “++ (between 25% to 100%)”.

Take `COc1cc(NC(=O)c2c[nH]c3ccccc3c2=O)cc2ccccc12` [Compound 717, N-(4-methoxy-2-naphthyl)-4-oxo-1H-quinoline-3-carboxamide]: the EC50 is less than 10 µM and the “% Activity” value is on record as “++ (between 25% to 100%)”.

Take `CC(C)(C)c1cc(C(C)(C)C)c(NC(=O)c2c[nH]c3c(F)ccc(F)c3c2=O)cc1O` [Compound 718, 5,8-difluoro-N-(5-hydroxy-2,4-ditert-butyl-phenyl)-4-oxo-1H-quinoline-3-carboxamide]: the EC50 is less than 10 µM and the “% Activity” value was “++ (between 25% to 100%)”.
